From article PMC2654417 (Combinatorial chemistry & high throughput screening, 2008)
Like-named read-outs stand apart in the source and are kept apart here.

Target: T1, glucocorticoid receptor (GR) (Homo sapiens, UniProt P04150)
T1 sequence (P04150 1-777): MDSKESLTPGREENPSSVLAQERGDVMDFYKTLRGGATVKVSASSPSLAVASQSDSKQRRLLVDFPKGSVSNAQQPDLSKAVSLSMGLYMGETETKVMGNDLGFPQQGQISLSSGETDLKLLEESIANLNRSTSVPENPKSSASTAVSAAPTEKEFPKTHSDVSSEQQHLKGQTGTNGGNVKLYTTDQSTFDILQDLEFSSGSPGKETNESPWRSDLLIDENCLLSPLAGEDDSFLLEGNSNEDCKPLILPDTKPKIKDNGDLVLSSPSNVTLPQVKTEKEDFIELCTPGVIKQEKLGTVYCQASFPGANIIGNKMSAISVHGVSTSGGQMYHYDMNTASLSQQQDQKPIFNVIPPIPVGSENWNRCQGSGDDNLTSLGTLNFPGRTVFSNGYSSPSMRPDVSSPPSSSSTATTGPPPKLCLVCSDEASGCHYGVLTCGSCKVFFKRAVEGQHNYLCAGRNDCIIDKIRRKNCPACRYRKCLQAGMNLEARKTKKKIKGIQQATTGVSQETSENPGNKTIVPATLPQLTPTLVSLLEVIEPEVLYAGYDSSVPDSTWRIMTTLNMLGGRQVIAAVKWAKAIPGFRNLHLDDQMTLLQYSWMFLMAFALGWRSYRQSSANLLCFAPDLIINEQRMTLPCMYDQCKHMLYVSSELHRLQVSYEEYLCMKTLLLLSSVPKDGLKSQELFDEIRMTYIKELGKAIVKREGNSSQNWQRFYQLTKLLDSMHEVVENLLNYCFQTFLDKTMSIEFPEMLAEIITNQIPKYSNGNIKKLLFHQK
Experiment: GR-EFC nuclear translocation assay
Type: cell-based
Conditions: for EC50: read-out: qEC50; for qHTS Hill Slope: Hill slope of the qHTS curve fit; for log qEC50: log10 of qEC50 in M, printed as negative values; for qHTS Max Activity: maximal activity of the qHTS curve, inactive threshold […] (3σ)

[1] = qHTS curve fit, class 4 values are fit defaults
[2] = class 4 values are fit defaults

Compound: C#C[C@]1(O)CC[C@@H]2[C@H]3CCc4cc(OC)ccc4[C@@H]3CC[C@@]21C [NCGC00016310-01]
- EC50 [1]: > 9 µM

Compound: C[C@]12CC[C@@H]3c4ccc(O)cc4CC[C@H]3[C@@H]1CC[C@@H]2OC(=O)CCC1CCCC1 [NCGC00013034-01]
- EC50 [1]: > 9 µM

Compound: C[C@]12CC[C@H]3c4ccc(OC[C@H]5CO5)cc4CC[C@H]3[C@H]1CC[C@@H]2O [NCGC00017797-01]
- EC50 [1]: > 9 µM

Compound: C[C@H]1CC[C@@]2(NC1)O[C@@H]1C[C@H]3[C@@H]4CC=C5C[C@@H](O)CC[C@]5(C)[C@@H]4CC[C@]3(C)[C@@H]1[C@@H]2C [NCGC00016381-01]
- EC50 [1]: > 9 µM

Compound: C[C@@]12CC[C@H](O)C[C@@H]1CC[C@H]1[C@@H]2C[C@@H](O)[C@]2(C)[C@@H](C3=CC(=O)OC3)CC[C@]12O [NCGC00016591-01]
- EC50 [1]: > 9 µM

Compound: C[C@]12C=CC(=O)C=C1CC[C@@H]1[C@H]3C[C@@H](O)[C@](O)(C(=O)CO)[C@@]3(C)C[C@H](O)[C@]12F [NCGC00016376-01]
- qHTS Hill Slope: 1.15
- log qEC50 [2]: −7.082
- qHTS Max Activity: 67.5
- EC50 [1]: 0.0827 µM

Compound: C[C@]12CC[C@H](O)C[C@@H]1CC[C@H]1[C@H]2CC[C@]2(C)[C@H](C(=O)CO)CC[C@@H]12 [NCGC00015805-01]
- EC50 [1]: > 9 µM

Compound: C#C[C@@]1(O)CC[C@@H]2[C@@H]3CCC4=CC(=O)CC[C@@H]4[C@H]3CC[C@]21CC [NCGC00016540-01]
- qHTS Curve Class: 4 (inactive, where activity was below 28.6% (3σ for the present assay))
- EC50: > 9 µM

Compound: C[C@@]12C=CC(=O)C=C1CC[C@@H]1C2=CC[C@]2(C)[C@@H]1CC[C@H]2C(=O)CN1CCN(c2cc(N3CCCC3)nc(N3CCCC3)n2)CC1 [NCGC00016076-01]
- qHTS Curve Class: 4 (inactive, where activity was below 28.6% (3σ for the present assay))
- EC50: > 9 µM

Compound: CC(=O)O[C@H]1CC[C@@]2(C)C(=CC[C@@H]3[C@@H]2CC[C@]2(C)C(=O)CC[C@@H]32)C1 [NCGC00016544-01]
- EC50 [1]: > 9 µM

Compound: C[C@@]12C[C@@H](O)[C@H]3[C@@H](CCC4=CC(=O)CC[C@]43C)[C@H]1CC[C@H]2C(=O)CO [NCGC00015222-01]
- qHTS Hill Slope: 0.77
- log qEC50 [2]: −6.747
- qHTS Max Activity: 64.0
- EC50 [1]: 0.179 µM

Compound: C[C@H](CCC(=O)O)[C@H]1CC[C@H]2[C@@H]3[C@H](O)C[C@@H]4C[C@H](O)CC[C@]4(C)[C@H]3C[C@H](O)[C@]12C [NCGC00013426-01]
- EC50 [1]: > 9 µM

Compound: C=C(C)[C@H]1CC[C@]2(CO)CC[C@]3(C)[C@@H](CC[C@H]4[C@@]5(C)CC[C@@H](O)C(C)(C)[C@@H]5CC[C@@]43C)[C@H]12 [NCGC00016450-01]
- qHTS Curve Class: 4 (inactive, where activity was below 28.6% (3σ for the present assay))
- EC50: > 9 µM

Compound: CC(C)(O)/C=C\C(=O)[C@](C)(O)[C@H]1[C@H](O)C[C@]2(C)[C@@H]3CC=C4[C@@H](C=C(O)C(=O)C4(C)C)[C@]3(C)C(=O)C[C@@]12C [NCGC00014911-01]
- qHTS Curve Class: 4 (inactive, where activity was below 28.6% (3σ for the present assay))
- EC50: > 9 µM

Compound: COc1cc2c(cc1O)CC[C@@H]1[C@@H]2CC[C@@]2(C)[C@H](O)CC[C@H]12 [NCGC00015690-01]
- EC50 [1]: > 9 µM

Compound: C[C@@]12CC[C@H]3[C@@H](CC=C4C[C@H](OS(=O)(=O)O)CC[C@]43C)[C@H]1CCC2=O [NCGC00016143-01]
- EC50 [1]: > 9 µM

Compound: CC(=O)O[C@@H]1C[C@]2(C)[C@H](C[C@@H](O)[C@H]3[C@@]4(C)CC[C@@H](O)[C@@H](C)[C@@H]4CC[C@@]32C)/C1=C(\CCC=C(C)C)C(=O)[O-].[Na+] [NCGC00016148-01]
- qHTS Curve Class: 4 (inactive, where activity was below 28.6% (3σ for the present assay))
- EC50: > 9 µM

Compound: CC1(C)O[C@@H]2C[C@H]3[C@@H]4C[C@H](F)C5=CC(=O)CC[C@]5(C)[C@H]4[C@@H](O)C[C@]3(C)[C@]2(C(=O)CO)O1 [NCGC00016586-01]
- qHTS Hill Slope: 0.69
- log qEC50 [2]: −7.725
- qHTS Max Activity: 104.7
- EC50 [1]: 0.0188 µM

Compound: CC(=O)OCC(=O)[C@@]1(O)CC[C@@H]2[C@H]3CCC4=CC(=O)CC[C@]4(C)[C@]3(F)[C@@H](O)C[C@@]21C [NCGC00016476-01]
- qHTS Hill Slope: 0.75
- qHTS Max Activity: 74.0

Compound: C[C@@H]1O[C@@H](O[C@@H]2C=C3CC[C@@H]4[C@H](CC[C@]5(C)[C@@H](c6ccc(=O)oc6)CC[C@]45O)[C@@]3(C)CC2)[C@H](O)[C@H](O)[C@H]1O [NCGC00016447-01]
- qHTS Curve Class: 4 (inactive, where activity was below 28.6% (3σ for the present assay))
- EC50: > 9 µM

Compound: C[C@]12CC[C@H]3[C@@H](CCC4=CC(=O)CC[C@@]43C)[C@@H]1CC[C@@H]2C(=O)CO [NCGC00016292-01]
- EC50 [1]: > 9 µM

Compound: CC(=O)[C@H]1CC[C@H]2[C@@H]3C[C@H](C)C4=CC(=O)CC[C@]4(C)[C@H]3[C@@H](O)C[C@]12C [NCGC00016616-01]
- qHTS Hill Slope: 0.13
- log qEC50 [2]: −5.381
- qHTS Max Activity: 100.0
- EC50 [1]: 4.16 µM

Compound: C[C@H](CCC(=O)O)[C@H]1CC[C@@H]2[C@H]3CC[C@H]4C[C@@H](O)CC[C@@]4(C)[C@H]3CC[C@]21C [NCGC00016445-01]
- EC50 [1]: > 9 µM

Compound: C#C[C@]1(O)CC[C@@H]2[C@H]3CCC4=Cc5oncc5C[C@]4(C)[C@@H]3CC[C@@]21C [NCGC00016726-01]
- qHTS Curve Class: 4 (inactive, where activity was below 28.6% (3σ for the present assay))
- EC50: > 9 µM

Compound: CCC(=O)[C@@]1(C)[C@H](C)C[C@H]2[C@@H]3CCC4=CC(=O)C=C[C@]4(C)[C@H]3[C@@H](O)C[C@@]21C [NCGC00016856-01]
- qHTS Hill Slope: 0.52
- log qEC50 [2]: −8.507
- qHTS Max Activity: 77.5
- EC50 [1]: 0.00311 µM

Compound: C[C@]12C[C@H]3S[C@H]3C[C@@H]1CC[C@@H]1[C@@H]2CC[C@]2(C)[C@@H](O)CC[C@@H]12 [NCGC00016609-01]
- qHTS Curve Class: 4 (inactive, where activity was below 28.6% (3σ for the present assay))
- EC50: > 9 µM

Compound: COc1ccc2c(c1)CC[C@H]1[C@H]2CC[C@]2(C)[C@H](NCCCCCCN3C(=O)C=CC3=O)CC[C@@H]12 [NCGC00016078-01]
- EC50 [1]: > 9 µM

Compound: C=C(C)[C@H]1CC[C@]2(C(=O)O)CC[C@]3(C)[C@@H](CC[C@H]4[C@@]5(C)CC[C@@H](O)C(C)(C)[C@@H]5CC[C@@]43C)[C@H]12 [NCGC00016449-01]
- qHTS Curve Class: 4 (inactive, where activity was below 28.6% (3σ for the present assay))
- EC50: > 9 µM

Compound: C#C[C@]1(O)CC[C@H]2[C@@H]3CCC4=CCCC[C@@H]4[C@H]3CC[C@@]21C [NCGC00016233-01]
- qHTS Curve Class: 4 (inactive, where activity was below 28.6% (3σ for the present assay))
- EC50: > 9 µM

Compound: CC1(C)[C@@H](O)CC[C@@]2(C)[C@H]1CC[C@]1(C)[C@H]2C(=O)C=C2[C@@H]3C[C@@](C)(C(=O)O)CC[C@]3(C)CC[C@@]21C [NCGC00017244-01]
- qHTS Curve Class: 4 (inactive, where activity was below 28.6% (3σ for the present assay))
- EC50: > 9 µM

Compound: CC(=O)[C@@H]1CC[C@H]2[C@H]3CC[C@H]4C[C@@H](O)CC[C@]4(C)[C@@H]3CC[C@]12C [NCGC00015853-01]
- EC50 [1]: > 9 µM

Compound: CC1(C)O[C@@H]2C[C@H]3[C@@H]4C[C@H](F)C5=CC(=O)C=C[C@]5(C)[C@H]4[C@@H](O)C[C@]3(C)[C@]2(C(=O)CO)O1 [NCGC00016983-01]
- qHTS Hill Slope: 0.57
- log qEC50 [2]: −8.315
- qHTS Max Activity: 97.1
- EC50 [1]: 0.00485 µM

Compound: CCC[C@@H]1CC2=CC(=O)CC[C@]2(C)[C@@H]2CC[C@@]3(C)[C@H](CC[C@]3(O)CCC(=O)O)[C@H]12 [NCGC00025253-01]
- EC50 [1]: > 9 µM

Compound: C[C@H]1[C@H](C)CC[C@@]2(C(=O)O)CC[C@]3(C)C(=CC[C@@H]4[C@@]5(C)CC[C@H](O)C(C)(C)[C@@H]5CC[C@@]43C)[C@@H]12 [NCGC00017223-01]
- qHTS Curve Class: 4 (inactive, where activity was below 28.6% (3σ for the present assay))
- EC50: > 9 µM

Compound: CC[C@@H]1Cc2cc(O)ccc2C2=C1c1ccc(O)cc1C[C@H]2CC [NCGC00015377-01]
- qHTS Curve Class: 4 (inactive, where activity was below 28.6% (3σ for the present assay))
- EC50: > 9 µM

Compound: CC(=O)O[C@@H]1[C@H]([N+]2(C)CCCCC2)C[C@@H]2[C@@H]3CC[C@@H]4C[C@@H](OC(C)=O)[C@H]([N+]5(C)CCCCC5)C[C@@]4(C)[C@H]3CC[C@]21C [NCGC00015804-01]
- EC50 [1]: > 9 µM

Compound: C#C[C@]1(O)CC[C@H]2[C@H]3CCC4=Cc5oncc5C[C@]4(C)[C@@H]3CC[C@]21C [NCGC00024732-01]
- qHTS Curve Class: 4 (inactive, where activity was below 28.6% (3σ for the present assay))
- EC50: > 9 µM

Compound: C[C@@]12CC[C@H]3[C@@H](CCC4=C(O)C(=O)CC[C@]43C)[C@H]1CCC2=O [NCGC00015070-01]
- EC50 [1]: > 9 µM

Compound: C[C@@H]1C[C@@H]2[C@H]3CCC4=CC(=O)C=C[C@]4(C)[C@]3(Cl)[C@@H](O)C[C@@]2(C)[C@@]1(O)C(=O)CO [NCGC00015136-01]
- qHTS Hill Slope: 0.67
- qHTS Max Activity: 105.1

Compound: C[C@H]1C[C@@H]2[C@H]([C@@H](O)C[C@@]3(C)[C@H]2CC[C@]3(O)C(=O)CO)[C@@]2(C)C=CC(=O)C=C12 [NCGC00016330-01]
- qHTS Hill Slope: 0.98
- qHTS Max Activity: 63.5
